# In patent publication US20240391936A1, “TETRAHYDROTHIENO PYRIDINE DERIVATIVES AS DDRS INHIBITORS” (CHIESI FARMACEUTICI S.P.A., priority 2021, published 2024):
# Assays:
# DDR1 [1] = molecular target: T1, DDR1 (Homo sapiens, UniProt Q08345); test: DDR1 binding assay (LanthaScreen Europium Kinase Binding assay); set-up: purchased Carna Biosciences; conditions: binding assay, 5 nM DDR1, 20 nM Kinase Tracer 178; Ki from IC50 by Cheng-Prusoff; read-out: Ki DDR1
# How it was run: (§1)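 Compounds incubated 1 h at room temperature with 5 nM kinase, Kinase Tracer 178 (20 nM for DDR1, 10 nM for DDR2) and 2 nM Eu-anti-GST antibody in pH 7.5 HEPES/MgCl2/EGTA/BRIJ35 buffer. TR-FRET 665/615 nm ratio read after 340 nm excitation; IC50 from 4-parameter fit, converted to Ki by Cheng-Prusoff.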
# DDR2 = molecular target: T2, DDR2 (Homo sapiens, UniProt Q16832); test: DDR2 binding assay (LanthaScreen Europium Kinase Binding assay); set-up: purchased Life Technologies; conditions: binding assay, 5 nM DDR2, 10 nM Kinase Tracer 178; Ki from IC50 by Cheng-Prusoff; read-out: Ki DDR2
# T2 sequence (Q16832 22-855): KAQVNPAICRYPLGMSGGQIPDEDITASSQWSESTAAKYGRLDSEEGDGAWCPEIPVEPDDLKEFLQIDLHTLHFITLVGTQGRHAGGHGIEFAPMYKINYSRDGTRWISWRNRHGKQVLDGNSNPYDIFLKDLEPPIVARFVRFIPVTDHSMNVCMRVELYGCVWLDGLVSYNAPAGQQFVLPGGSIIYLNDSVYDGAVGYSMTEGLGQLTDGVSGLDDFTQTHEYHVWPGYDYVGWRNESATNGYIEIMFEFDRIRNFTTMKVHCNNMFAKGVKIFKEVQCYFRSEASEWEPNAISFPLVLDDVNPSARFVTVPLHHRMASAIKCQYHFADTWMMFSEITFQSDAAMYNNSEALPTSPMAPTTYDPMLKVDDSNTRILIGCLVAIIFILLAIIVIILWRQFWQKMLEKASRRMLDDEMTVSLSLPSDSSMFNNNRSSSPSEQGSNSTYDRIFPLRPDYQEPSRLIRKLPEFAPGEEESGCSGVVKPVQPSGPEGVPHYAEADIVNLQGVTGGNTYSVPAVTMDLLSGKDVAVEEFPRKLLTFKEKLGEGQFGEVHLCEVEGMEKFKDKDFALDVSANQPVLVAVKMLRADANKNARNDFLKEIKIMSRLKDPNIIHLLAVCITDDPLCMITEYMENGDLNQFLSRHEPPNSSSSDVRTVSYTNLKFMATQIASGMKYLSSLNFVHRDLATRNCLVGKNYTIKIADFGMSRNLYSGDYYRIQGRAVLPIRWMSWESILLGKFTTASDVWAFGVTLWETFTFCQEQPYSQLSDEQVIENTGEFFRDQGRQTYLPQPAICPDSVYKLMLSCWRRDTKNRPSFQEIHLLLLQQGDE
# How it was run: as §1
# DDR1 [2] = molecular target: T1, DDR1; test: DDR1 cell based assay (PathHunter U2OS DDR1 assay); set-up: host or cells: U2OS-DDR1 (PathHunter); conditions: U2OS-DDR1 cells, bovine Type II Collagen 20 μg/ml
# How it was run: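 U2OS-DDR1 PathHunter cells preincubated 30 min with compound, then stimulated overnight at 37 °C with 20 μg/ml bovine type II collagen. Luminescent complementation signal read after 1 h detection at room temperature; normalized to vehicle (0%) and collagen-only (100%) controls, IC50 from variable-slope sigmoidal fit.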
# T1 sequence (Q08345 19-913): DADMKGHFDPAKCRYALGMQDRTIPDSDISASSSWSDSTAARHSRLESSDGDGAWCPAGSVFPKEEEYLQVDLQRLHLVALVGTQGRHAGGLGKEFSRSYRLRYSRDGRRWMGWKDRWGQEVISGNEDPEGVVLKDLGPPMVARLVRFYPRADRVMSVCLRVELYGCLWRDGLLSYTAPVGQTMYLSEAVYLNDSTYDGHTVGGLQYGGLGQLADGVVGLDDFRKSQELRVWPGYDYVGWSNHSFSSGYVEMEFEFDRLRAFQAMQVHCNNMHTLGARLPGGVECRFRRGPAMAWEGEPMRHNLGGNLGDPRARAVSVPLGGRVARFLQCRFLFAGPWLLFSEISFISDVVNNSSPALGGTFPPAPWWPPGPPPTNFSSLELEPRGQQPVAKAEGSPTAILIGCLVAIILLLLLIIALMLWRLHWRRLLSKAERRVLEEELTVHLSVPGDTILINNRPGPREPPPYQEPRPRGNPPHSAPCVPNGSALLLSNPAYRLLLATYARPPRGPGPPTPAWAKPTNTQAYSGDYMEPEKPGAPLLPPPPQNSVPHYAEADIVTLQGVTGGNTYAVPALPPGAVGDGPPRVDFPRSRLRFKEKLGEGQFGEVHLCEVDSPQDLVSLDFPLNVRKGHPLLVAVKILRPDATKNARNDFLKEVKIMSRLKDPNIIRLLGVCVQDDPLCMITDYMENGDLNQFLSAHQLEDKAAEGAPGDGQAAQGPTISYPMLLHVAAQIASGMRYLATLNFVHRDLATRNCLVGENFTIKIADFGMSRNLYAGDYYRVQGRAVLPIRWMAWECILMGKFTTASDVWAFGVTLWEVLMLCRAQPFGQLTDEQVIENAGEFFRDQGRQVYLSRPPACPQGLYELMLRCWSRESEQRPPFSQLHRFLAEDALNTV
SMILES,Ki (DDR1 [1]),Ki (DDR2),IC50 (DDR1 [2])
"CN(C)[C@@H]1CCN(Cc2cc(NC(=O)c3csc4c3CCN(Cc3cnc5ccnn5c3)C4)cc(C(F)(F)F)c2)C1 [Example 161, (R)-N-(3-((3-(dimethylamino)pyrrolidin-1-yl)methyl)-5-(trifluoromethyl)phenyl)-6-(pyrazolo[1,5-a]pyrimidin-6-ylmethyl)-4,5,6,7-tetrahydrothieno[2,3-c]pyridine-3-carboxamide]",< 0.025 µM,< 0.025 µM,0.025 to 0.05 µM
"Cc1cccc2ncc(C(=O)N3CCc4c(C(=O)Nc5cc(CN6CC[C@@H](N(C)C)C6)cc(C(F)(F)F)c5)csc4C3)n12 [Example 162, (R)—N-(3-((3-(dimethylamino)pyrrolidin-1-yl)methyl)-5-(trifluoromethyl)phenyl)-6-(5-methylimidazo[1,2-a]pyridine-3-carbonyl)-4,5,6,7-tetrahydrothieno[2,3-c]pyridine-3-carboxamide]",< 0.025 µM,0.025 to 0.05 µM,0.025 to 0.05 µM
"Cc1n[nH]c2ncc(CN3CCc4c(C(=O)Nc5cc(OCCN6CCCC6)cc(C(F)(F)F)c5)csc4C3)cc12 [Example 163, 6-[(3-methyl-1H-pyrazolo[3,4-b]pyridin-5-yl)methyl]-N-[3-(2-pyrrolidin-1-ylethoxy)-5-(trifluoromethyl)phenyl]-5,7-dihydro-4H-thieno[2,3-c]pyridine-3-carboxamide]",< 0.025 µM,< 0.025 µM,< 0.025 µM
"O=C(Nc1cc(OCCN2CCCC2)cc(C(F)(F)F)c1)c1csc2c1CCN(Cc1cnc3[nH]ncc3c1)C2 [Example 164, 6-((1H-pyrazolo[3,4-b]pyridin-5-yl)methyl)-N-(3-(2-(pyrrolidin-1-yl)ethoxy)-5-(trifluoromethyl)phenyl)-4,5,6,7-tetrahydrothieno[2,3-c]pyridine-3-carboxamide]",< 0.025 µM,< 0.025 µM,< 0.025 µM
"CN1CC2(C1)CN(c1ccc3ncc(C(=O)N4CCc5c(C(=O)Nc6cccc(C(F)(F)F)c6)csc5C4)n3c1)C2 [Example 166, 6-(6-(6-methyl-2,6-diazaspiro[3.3]heptan-2-yl)imidazo[1,2-a]pyridine-3-carbonyl)-N-(3-(trifluoromethyl)phenyl)-4,5,6,7-tetrahydrothieno[2,3-c]pyridine-3-carboxamide]",< 0.025 µM,< 0.025 µM,0.05 to 0.08 µM
"CN1CC=C(c2ccc3ncc(C(=O)N4CCc5c(C(=O)Nc6cccc(C(F)(F)F)c6)csc5C4)n3c2)CC1 [Example 167, 6-(6-(1-methyl-1,2,3,6-tetrahydropyridin-4-yl)imidazo[1,2-a]pyridine-3-carbonyl)-N-(3-(trifluoromethyl)phenyl)-4,5,6,7-tetrahydrothieno[2,3-c]pyridine-3-carboxamide]",< 0.025 µM,< 0.025 µM,0.025 to 0.05 µM
"CN1CCN(c2ccc3ncc(C(=O)N4CCc5c(C(=O)Nc6cc(C(C)(C)C)no6)csc5C4)n3c2)CC1 [Example 168, N-(3-(tert-butyl)isoxazol-5-yl)-6-(6-(4-methylpiperazin-1-yl)imidazo[1,2-a]pyridine-3-carbonyl)-4,5,6,7-tetrahydrothieno[2,3-c]pyridine-3-carboxamide]",< 0.025 µM,< 0.025 µM,0.025 to 0.05 µM
"Cn1nc(NC(=O)c2csc3c2CCN(Cc2cnc4[nH]ccc4c2)C3)cc1C(F)(F)F [Example 169, 6-((1H-pyrrolo[2,3-b]pyridin-5-yl)methyl)-N-(1-methyl-5-(trifluoromethyl)-1H-pyrazol-3-yl)-4,5,6,7-tetrahydrothieno[2,3-c]pyridine-3-carboxamide]",< 0.025 µM,< 0.025 µM,< 0.025 µM
"O=C(Nc1cccc(C(F)(F)F)c1)c1csc2c1CCN(C(=O)c1cnc3ccc(OCCN4CCOCC4)cn13)C2 [Example 170, 6-(6-(2-morpholinoethoxy)imidazo[1,2-a]pyridine-3-carbonyl)-N-(3-(trifluoromethyl)phenyl)-4,5,6,7-tetrahydro thieno[2,3-c]pyridine-3-carboxamide]",< 0.025 µM,< 0.025 µM,0.025 to 0.05 µM
"CN(C)Cc1ccc(NC(=O)c2csc3c2CCN(C(=O)c2cnn4ccncc24)C3)cc1C(F)(F)F [Example 171, N-(4-((dimethylamino)methyl)-3-(trifluoromethyl)phenyl)-6-(pyrazolo[1,5-a]pyrazine-3-carbonyl)-4,5,6,7-tetrahydro thieno[2,3-c]pyridine-3-carboxamide]",< 0.025 µM,< 0.025 µM,0.05 to 0.08 µM
"O=C(Nc1cc(CN2CCOCC2)cc(C(F)(F)F)c1)c1csc2c1CCN(C(=O)c1cnn3ccncc13)C2 [Example 172, N-(3-(morpholinomethyl)-5-(trifluoromethyl)phenyl)-6-(pyrazolo[1,5-a]pyrazine-3-carbonyl)-4,5,6,7-tetrahydrothieno[2,3-c]pyridine-3-carboxamide]",< 0.025 µM,< 0.025 µM,0.025 to 0.05 µM
"O=C(Nc1cc(C(F)(F)F)cnn1)c1csc2c1CCN(C(=O)c1cnc3ccccn13)C2 [Example 173, 6-(imidazo[1,2-a]pyridine-3-carbonyl)-N-(5-(trifluoromethyl)pyridazin-3-yl)-4,5,6,7-tetrahydrothieno[2,3-c]pyridine-3-carboxamide]",< 0.025 µM,< 0.025 µM,0.025 to 0.05 µM
"CC(C)(C)c1cc(NC(=O)c2csc3c2CCN(C(=O)c2cnn4ccncc24)C3)no1 [Example 175, N-(5-(tert-butyl)isoxazol-3-yl)-6-(pyrazolo[1,5-a]pyrazine-3-carbonyl)-4,5,6,7-tetrahydrothieno[2,3-c]pyridine-3-carboxamide]",< 0.025 µM,< 0.025 µM,0.05 to 0.08 µM
"O=C(Nc1ccc(Cl)c(C(F)(F)F)c1)c1csc2c1CCN(C(=O)c1cnn3ccncc13)C2 [Example 176, N-(4-chloro-3-(trifluoromethyl)phenyl)-6-(pyrazolo[1,5-a]pyrazine-3-carbonyl)-4,5,6,7-tetrahydrothieno[2,3-c]pyridine-3-carboxamide]",< 0.025 µM,< 0.025 µM,0.05 to 0.08 µM
"CN1CCN(c2cc(NC(=O)c3csc4c3CCN(C(=O)c3cnc5ccccn35)C4)cc(C(F)(F)F)c2)CC1 [Example 177, 6-(imidazo[1,2-a]pyridine-3-carbonyl)-N-(3-(4-methylpiperazin-1-yl)-5-(trifluoromethyl)phenyl)-4,5,6,7-tetrahydrothieno [2,3-c]pyridine-3-carboxamide]",< 0.025 µM,< 0.025 µM,0.05 to 0.08 µM
"CN1CCN(c2cc(NC(=O)c3csc4c3CCN(C(=O)c3cnn5ccncc35)C4)cc(C(F)(F)F)c2)CC1 [Example 178, N-(3-(4-methylpiperazin-1-yl)-5-(trifluoromethyl)phenyl)-6-(pyrazolo[1,5-a]pyrazine-3-carbonyl)-4,5,6,7-tetrahydrothieno[2,3-c]pyridine-3-carboxamide]",< 0.025 µM,< 0.025 µM,0.05 to 0.08 µM
"CCC(C)(C)c1cc(NC(=O)c2csc3c2CCN(C(=O)c2cnn4ccncc24)C3)on1 [Example 179, N-(3-(tert-pentyl)isoxazol-5-yl)-6-(pyrazolo[1,5-a]pyrazine-3-carbonyl)-4,5,6,7-tetrahydrothieno[2,3-c]pyridine-3-carboxamide]",< 0.025 µM,< 0.025 µM,0.05 to 0.08 µM
"O=C(Nc1ccc(CO)c(C(F)(F)F)c1)c1csc2c1CCN(C(=O)c1cnn3ccncc13)C2 [Example 180, N-(4-(hydroxymethyl)-3-(trifluoromethyl)phenyl)-6-(pyrazolo[1,5-a]pyrazine-3-carbonyl)-4,5,6,7-tetrahydrothieno[2,3-c]pyridine-3-carboxamide]",< 0.025 µM,< 0.025 µM,0.025 to 0.05 µM
"O=C(Nc1cc(N2CCOCC2)cc(C(F)(F)F)c1)c1csc2c1CCN(C(=O)c1cnc3ccccn13)C2 [Example 181, 6-(imidazo[1,2-a]pyridine-3-carbonyl)-N-(3-morpholino-5-(trifluoromethyl)phenyl)-4,5,6,7-tetrahydrothieno [2,3-c]pyridine-3-carboxamide]",< 0.025 µM,< 0.025 µM,0.025 to 0.05 µM
